Columns and labels:
[1] = tested on: peripheral blood lymphocytes; test: Peripheral blood lymphocytes (lymphopenia) in c57bl/6 mice, acute and chronic studies; type: in vivo; conditions: for Lymphopenia: Effect and Doses, mg/kg, sc (change in peripheral blood lymphocytes): significance vs vehicle given; for Lymphopenia: Effect and Doses, mg/kg, sc: peripheral blood lymphocytes vs vehicle
Method: Compounds were tested for changes in peripheral blood lymphocytes in c57bl/6 mice. In acute studies, animals (n=5/group) were dosed subcutaneously with test compound at a dose of 3 mg/kg. Animals were sacrificed at specific time points and 500 μl of whole blood was collected in EDTA (K2) Eppendorf tubes. Blood was stored on ice and shipped immediately overnight delivery to Charles River Laboratories for analysis. CRL ran samples through their WBC/differential panel on an Advia 120 instrument. We received peripheral lymphocyte counts (10^3 cells/μl) for each blood sample. Treatment group means were compared to a vehicle treatment group for statistical significance. In chronic studies, animals (n=6-8/group) were dosed subcutaneously with test compound either in a dose response paradigm (highest dose of 3 mg/kg) or in a screening paradigm at 6 mg/kg for seven days. On the seventh day, animals were sacrificed 45 minutes after the final dose. Whole blood was collected and analyzed as described for acute studies. […]

[2] = biological target: T1, human sphingosine-1-phosphate receptor 1 (S1P1) (Homo sapiens (Human), UniProt P21453); test: Inhibition of cAMP production (HTRF cAMP HiRange), S1P1 CHO-K1 cells; type: cell-based; conditions: for hS1P1 cAMP pEC50: inhibition of cAMP production, S1P1 CHO-K1 cells; for Emax: CHO-K1, efficacy (SPAN) normalized to fingolimod, read-out: hS1P1 cAMP SPAN
Method in brief: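 CHO-K1 cells stably co-expressing human S1P1 (C-terminal Prolink tag) and EA-β-arrestin2 were grown in AssayComplete Media 6 at 37° C. and 5% CO2, plated, and incubated overnight. Agonist-driven inhibition of intracellular cAMP was read by TR-FRET with the HTRF cAMP HiRange kit on a PheraStar reader. Potency is pEC50, and efficacy (SPAN) is normalized to fingolimod.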
Target sequence in this assay (P21453 whole entry, looked up): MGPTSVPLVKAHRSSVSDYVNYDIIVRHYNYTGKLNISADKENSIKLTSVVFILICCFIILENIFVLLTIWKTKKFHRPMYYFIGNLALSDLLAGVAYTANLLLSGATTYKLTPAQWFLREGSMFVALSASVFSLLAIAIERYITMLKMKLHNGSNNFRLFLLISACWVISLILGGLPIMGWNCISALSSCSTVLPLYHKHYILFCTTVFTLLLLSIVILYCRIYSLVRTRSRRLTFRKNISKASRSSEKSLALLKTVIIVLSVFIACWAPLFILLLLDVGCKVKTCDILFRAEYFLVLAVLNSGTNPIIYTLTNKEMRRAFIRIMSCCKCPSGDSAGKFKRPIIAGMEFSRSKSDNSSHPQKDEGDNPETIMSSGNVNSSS

[3] = biological target: T1, human sphingosine-1-phosphate receptor 1 (S1P1); test: β-Arrestin2 recruitment assay (PathHunter), S1P1 CHO-K1 cells; type: cell-based; conditions: for hS1P1 B-arrestin2 pEC50: β-arrestin2 recruitment, S1P1 CHO-K1 cells; for Emax: CHO-K1, efficacy (SPAN) normalized to fingolimod, read-out: hS1P1 B-arrestin2 SPAN
Method in brief: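 Enzyme-fragment complementation read-out: agonist-driven β-arrestin2 binding to ProLink-tagged human S1P1 in stable CHO-K1 cells restores β-galactosidase, measured 1 h at room temperature after a 60 min 37° C. compound incubation. Potency as pEC50, efficacy relative to fingolimod (SPAN).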
Target sequence in this assay (P21453 whole entry, looked up): as above
Target sequence in this assay (P32121 whole entry partner, looked up): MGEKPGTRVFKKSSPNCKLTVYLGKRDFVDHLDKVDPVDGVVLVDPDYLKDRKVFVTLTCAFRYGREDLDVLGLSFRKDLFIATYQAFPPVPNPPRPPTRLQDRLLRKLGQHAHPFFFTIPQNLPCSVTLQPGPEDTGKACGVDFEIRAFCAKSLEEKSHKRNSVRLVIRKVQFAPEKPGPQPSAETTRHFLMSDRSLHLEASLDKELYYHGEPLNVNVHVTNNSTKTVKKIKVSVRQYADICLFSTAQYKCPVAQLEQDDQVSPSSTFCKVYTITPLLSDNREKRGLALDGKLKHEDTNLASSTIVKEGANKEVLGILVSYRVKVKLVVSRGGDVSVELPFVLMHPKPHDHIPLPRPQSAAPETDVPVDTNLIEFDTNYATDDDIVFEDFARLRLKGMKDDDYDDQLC

[4] = biological target: sphingosine-1-phosphate receptor 5 (S1P5) (Homo sapiens (Human), UniProt Q9H228); test: Inhibition of cAMP production (HTRF), S1P5 CHO-K1 cells; type: cell-based; conditions: inhibition of cAMP production, hS1P5
Sequence of sphingosine-1-phosphate receptor 5 (S1P5) (Q9H228 whole entry): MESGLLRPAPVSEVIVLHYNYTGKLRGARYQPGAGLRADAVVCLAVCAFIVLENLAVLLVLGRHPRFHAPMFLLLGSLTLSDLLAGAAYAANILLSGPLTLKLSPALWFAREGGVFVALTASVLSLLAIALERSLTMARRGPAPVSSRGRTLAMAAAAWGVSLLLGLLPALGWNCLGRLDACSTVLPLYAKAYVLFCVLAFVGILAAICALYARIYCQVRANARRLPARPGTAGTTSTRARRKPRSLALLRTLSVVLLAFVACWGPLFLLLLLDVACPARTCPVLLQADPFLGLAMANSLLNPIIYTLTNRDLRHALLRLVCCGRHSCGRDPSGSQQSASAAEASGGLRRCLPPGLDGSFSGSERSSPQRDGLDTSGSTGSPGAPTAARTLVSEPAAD
Method: Stable clonal Chinese hamster ovary K1 (CHO-K1) cells co-expressing EA-β-arrestin2 and the human sphingosine-1-phosphate receptor 2 (NM_004230.3, S1P2), human sphingosine-1-phosphate receptor 3 (NM_005226, S1P3) and sphingosine-1-phosphate receptor 5 (NM_001166215.1, S1P5) with a C-terminal Prolink™ tag were purchased from DiscoverX corporation (S1P2: Cat #93-0256C2, S1P3: Cat #93-0217C2, S1P5: Cat #93-0583C2).
Cell lines were cultured in AssayComplete™ Media 6 (DiscoverX Corporation, Cat #: 920018GF2) at 37° C. and 5% CO2 in a humidified CO2 and temperature-controlled incubator. To begin assay plating, cells were washed with dulbecco's phosphate buffered saline (CellGro, Cat #: 21-031-CV) and lifted from the culturing flask by incubation (37° C., 5 min) with CellStripper (Cellgro, Cat #: 25-056-CI). […] Plated cells were incubated overnight at 37° C. and 5% CO2 in a humidified CO2 and temperature-controlled incubator.
S1P3 and S1P5 Agonist-promoted G-protein responses were determined by measuring changes in intracellular cAMP using the HTRF® cAMP HiRange kit (CisBio, Cat #: 62AM6PEJ) based on time-resolved fluorescence resonance energy transfer (TR-FRET) technology. […] Following a 30-minute room temperature incubation the components of the cAMP HiRange kit were added as per the manufacturer's instructions. After an hour incubation at room temperature, plates were analyzed by a BMG PheraStar microplate reader.
The tables below include the efficacy of the compound as compared to a positive control, referred to as “SPAN”. These values are normalized to fingolimod, a known agonist of the sphingosine-1-phosphate 3 and 5 receptor or CYM5520, a known agonist of the sphingosine-1-phosphate 2 receptor. The tables also include potency values (pEC50) for modulating discrete receptor-mediated activities (inhibition of cAMP production or inositol monophosphate accumulation).

[5] = biological target: human sphingosine-1-phosphate receptor 2 (S1P2) (Homo sapiens (Human), UniProt O95136); test: Inositol monophosphate production (IP-one TB kit), S1P2 CHO-K1 cells; type: cell-based; conditions: inositol monophosphate accumulation, hS1P2
Sequence of human sphingosine-1-phosphate receptor 2 (S1P2) (O95136 whole entry): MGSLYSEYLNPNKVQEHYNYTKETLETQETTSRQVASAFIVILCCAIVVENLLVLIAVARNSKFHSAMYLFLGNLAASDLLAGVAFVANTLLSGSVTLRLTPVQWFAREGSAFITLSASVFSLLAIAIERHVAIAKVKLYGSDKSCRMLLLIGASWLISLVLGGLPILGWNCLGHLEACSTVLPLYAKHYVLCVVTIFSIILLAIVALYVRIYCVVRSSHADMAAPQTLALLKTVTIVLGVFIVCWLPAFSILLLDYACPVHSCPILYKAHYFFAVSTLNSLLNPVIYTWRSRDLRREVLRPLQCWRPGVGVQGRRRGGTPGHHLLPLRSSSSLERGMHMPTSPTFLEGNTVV
Method in brief: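 Stable CHO-K1 cells expressing EA-β-arrestin2 and Prolink-tagged human S1P2, plated overnight, then exposed to compounds in IP-one stimulation buffer for 60 min at 37 °C. IP1 read by TR-FRET after 1 h at RT. Efficacy (SPAN) normalized to CYM5520; potency as pEC50.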

[6] = biological target: human sphingosine-1-phosphate receptor 3 (S1P3) (Homo sapiens (Human), UniProt Q99500); test: Inhibition of cAMP production (HTRF), S1P3 CHO-K1 cells; type: cell-based; conditions: inhibition of cAMP production, hS1P3
Sequence of human sphingosine-1-phosphate receptor 3 (S1P3) (Q99500 whole entry): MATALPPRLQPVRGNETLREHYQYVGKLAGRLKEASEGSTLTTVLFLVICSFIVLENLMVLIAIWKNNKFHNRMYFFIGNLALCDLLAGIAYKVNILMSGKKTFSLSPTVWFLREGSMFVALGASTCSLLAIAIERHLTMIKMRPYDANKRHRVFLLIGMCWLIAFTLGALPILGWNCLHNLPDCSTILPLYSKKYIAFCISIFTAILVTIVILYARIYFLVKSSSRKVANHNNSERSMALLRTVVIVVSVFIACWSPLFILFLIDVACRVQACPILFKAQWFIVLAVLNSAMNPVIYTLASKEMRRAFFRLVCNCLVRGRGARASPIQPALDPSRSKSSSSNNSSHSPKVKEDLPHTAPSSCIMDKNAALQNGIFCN

[7] = tested on: paclitaxel induced peripheral neuropathy; test: Reversal of allodynia induced by paclitaxel in mice (s.c. or p.o., von Frey frequency method); type: in vivo, c57bl/6 mice; conditions: Mus musculus; for inhibition in vivo at 3 mg/kg: po, 1 h, 3 mg/kg p.o., tested 60 min after dosing, read-out: Screen @ 3 mg/kg po (% MPE); for inhibition in vivo at 1 mg/kg: sc, 0.5 h, 1 mg/kg s.c., tested 30 min after dosing, read-out: Screen @ 1 mg/kg sc (% MPE)
Method in brief: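 Neuropathy was induced in mice by paclitaxel (6 mg/kg i.p., days 1, 3, 5, 7) or oxaliplatin (4 mg/kg i.p., days 1-5), with re-testing about 14 days later. Compounds were given s.c. (tested at 30 min) or p.o. (tested at 60 min; paclitaxel only). A 0.4 g von Frey filament was applied ten times per paw, and % non-response was converted to % MPE.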

Row | SMILES | hS1P1 cAMP pEC50 [2] | Lymphopenia: Effect and Doses, mg/kg, sc ([1]; 6 mg/kg sc, 7 days) | hS1P1 B-arrestin2 pEC50 [3] | inhibition in vivo at 3 mg/kg [7] | other results
1 | CC(C)Nc1ccc(-c2ncc(-c3cccnc3)cn2)cc1C#N [Compound 737, 2-(isopropylamino)-5-(5-(pyridin-3-yl)pyrimidin-2-yl)benzonitrile] | – | – | – | – | Lymphopenia: Effect and Doses, mg/kg, sc (change in peripheral blood lymphocytes) ([1]; 6 mg/kg sc, 7 days): −40% not stat sig: 6 mg/kg, 7 days
2 | Cc1cnc(-c2nc(-c3ccc4c(c3)nnn4C(C)C)no2)cn1 [Compound 234, 3-(1-isopropyl-1H-benzo[d][1,2,3]triazol-5-yl)-5-(5-methylpyrazin-2-yl)-1,2,4-oxadiazole] | <6.5 | no change: 6 mg/kg, 7 days | <5 | – | –
3 | CC(C)n1nnc2cc(-c3nc(-c4cccc5c4OCO5)no3)ccc21 [Compound 32, 3-(benzo[d][1,3]dioxol-4-yl)-5-(1-isopropyl-1H-benzo[d][1,2,3]triazol-5-yl)-1,2,4-oxadiazole] | >6.5 | no change: 6 mg/kg, 7 days | >5 | – | hS1P5 cAMP pEC50 [4]: <5.0; hS1P2 IP-one pEC50 [5]: <5.0; hS1P3 cAMP pEC50 [6]: <5.0
4 | CC(C)Nc1ccc(-c2nnc(-c3ccc4[nH]cnc4c3)o2)cc1C#N [Compound 356, 5-[5-(1H-1,3-benzodiazol-5-yl)-1,3,4-oxadiazol-2-yl]-2-[(propan-2-yl)amino]benzonitrile] | >6.5 | no change: 6 mg/kg, 7 days | >5 | > 50% | Emax [2]: > 75%; Emax [3]: > 75%
5 | COc1cccc(-c2noc(-c3ccc4c(c3)nnn4C(C)C)n2)n1 [Compound 19, 5-[3-(6-methoxypyridin-2-yl)-1,2,4-oxadiazol-5-yl]-1-(propan-2-yl)-1H-1,2,3-benzotriazole] | <6.5 | no change: 6 mg/kg, 7 days | >5 | – | –
6 | COc1cc(NC(C)=O)ccc1-c1noc(-c2ccc(NC(C)C)c(C#N)c2)n1 [Compound 731, N-[4-(5-{3-cyano-4-[(propan-2-yl)amino]phenyl}-1,2,4-oxadiazol-3-yl)-3-methoxyphenyl]acetamide] | – | – | – | > 50% | Lymphopenia: Effect and Doses, mg/kg, sc (change in peripheral blood lymphocytes) ([1]; 6 mg/kg sc, 7 days): −78% stat sig: 6 mg/kg, 7 days
7 | Cc1ccccc1-c1noc(-c2ccc3c(c2)nnn3C(C)(C)C)n1 [Compound 59, 1-tert-butyl-5-[3-(2-methylphenyl)-1,2,4-oxadiazol-5-yl]-1H-1,2,3-benzotriazole] | >6.5 | no change: 6 mg/kg, 7 days | >5 | – | –
8 | CCC1(CC)CC(=O)c2cc(-c3nc(-c4ccc(NC(C)=O)cc4OC)no3)ccc2O1 [Compound 531, N-{4-[5-(2,2-diethyl-4-oxo-3,4-dihydro-2H-1-benzopyran-6-yl)-1,2,4-oxadiazol-3-yl]-3-methoxyphenyl}acetamide] | >6.5 | no change: 6 mg/kg, 7 days | >5 | > 50% | –
9 | CN1C(=O)CCc2cc(-c3nc(-c4cccnc4)no3)ccc21 [Compound 384, 1-methyl-6-[3-(pyridin-3-yl)-1,2,4-oxadiazol-5-yl]-1,2,3,4-tetrahydroquinolin-2-one] | <6.5 | – | <5 | – | Lymphopenia: Effect and Doses, mg/kg, sc ([1]; acute, 3 mg/kg sc, 45 min and 2 hr): no change: 3 mg/kg; 45 min and 2 hr
10 | CC(F)(F)CNc1ccc(-c2nnc(-c3ccc4[nH]ncc4c3)o2)cc1C#N [Compound 355, 2-[(2,2-difluoropropyl)amino]-5-[5-(1H-indazol-5-yl)-1,3,4-oxadiazol-2-yl]benzonitrile] | >6.5 | no change: 6 mg/kg, 7 days | >5 | > 50% | –
11 | Cc1cnccc1-c1nc(-c2ccc3c(c2)nnn3C(C)C)no1 [Compound 8, 3-(1-isopropyl-1H-benzo[d][1,2,3]triazol-5-yl)-5-(3-methylpyridin-4-yl)-1,2,4-oxadiazole] | <6.5 | no change: 6 mg/kg, 7 days | <5 | – | Emax [2]: < 75%; inhibition in vivo at 1 mg/kg [7]: < 50%; Emax [3]: < 75%
12 | CC(C)Oc1ccc(-c2nc(-c3ccc4c(c3)nnn4C(C)C)no2)cc1C#N [Compound 22, 2-isopropoxy-5-(3-(1-isopropyl-1H-benzo[d][1,2,3]triazol-5-yl)-1,2,4-oxadiazol-5-yl)benzonitrile] | – | – | – | – | Lymphopenia: Effect and Doses, mg/kg, sc ([1]; 3 mg/kg sc, 7 days): no change: 3 mg/kg, 7 days
13 | N#Cc1cc(-c2nc(-c3ccc4oc(=O)[nH]c4c3)no2)ccc1NCC1CC1 [Compound 423, 2-((cyclopropylmethyl)amino)-5-(3-(2-oxo-2,3-dihydrobenzo[d]oxazol-5-yl)-1,2,4-oxadiazol-5-yl)benzonitrile] | >6.5 | no change: 6 mg/kg, 7 days | >5 | > 50% | hS1P2 IP-one pEC50 [5]: >5.0; hS1P3 cAMP pEC50 [6]: >5.0
14 | Cc1ccccc1-c1noc(-c2ccc3c(c2)nnn3CC(C)C)n1 [Compound 96, 5-[3-(2-methylphenyl)-1,2,4-oxadiazol-5-yl]-1-(2-methylpropyl)-1H-1,2,3-benzotriazole] | >6.5 | no change: 6 mg/kg, 7 days | >5 | – | Emax [2]: > 75%; inhibition in vivo at 1 mg/kg [7]: > 50%; Emax [3]: > 75%

Reference: US11912693B2, “Compounds for modulating S1P1 activity and methods of using the same” (TREVENA, INC., priority 2017, dated 2024)
